Test results from paper PMC12748989 (Nature Communications, 2025).

Experiments:
[1] = tested on: PBMC; details: 12.5 µM
[2] = tested on: MDA-MB-231 cells

Compound | Average (percentage cell inhibition), Mastoparan PBMC [1] [%] | Average (percentage cell inhibition), Dmastoparan MDA-MB231 12.5uM [2] [%]
CC[C@H](C)[C@H](N)C(=O)N[C@@H](Cc1c[nH]c2ccccc12)C(=O)N[C@@H](CC(C)C)C(=O)N[C@@H](CCCCN)C(=O)N[C@@H](C)C(=O)N[C@@H](CC(C)C)C(=O)N[C@@H](C)C(=O)N[C@@H](C)C(=O)N[C@@H](CC(C)C)C(=O)N[C@@H](C)C(=O)N[C@@H](CCCCN)C(=O)N[C@@H](CCCCN)C(=O)N[C@H](C(=O)N[C@@H](CC(C)C)C(N)=O)[C@@H](C)CC [W2] | 92.9669 | 98.3458
CC[C@H](C)[C@H](N)C(=O)N[C@@H](CC(N)=O)C(=O)N[C@@H](CC(C)C)C(=O)N[C@@H](CCCCN)C(=O)N[C@@H](C)C(=O)N[C@@H](CC(C)C)C(=O)N[C@@H](C)C(=O)N[C@@H](C)C(=O)N[C@@H](CC(C)C)C(=O)N[C@@H](C)C(=O)N[C@@H](CCCCN)C(=O)N[C@@H](CCCCN)C(=O)N[C@@H](Cc1c[nH]c2ccccc12)C(=O)N[C@@H](CC(C)C)C(N)=O [W13] | 24.9289 | 70.7641
CC[C@H](C)[C@H](N)C(=O)N[C@@H](CC(N)=O)C(=O)N[C@@H](CC(C)C)C(=O)N[C@@H](CCCCN)C(=O)N[C@@H](C)C(=O)N[C@@H](CC(C)C)C(=O)N[C@H](C(=O)N[C@@H](C)C(=O)N[C@@H](CC(C)C)C(=O)N[C@@H](C)C(=O)N[C@@H](CCCCN)C(=O)N[C@@H](CCCCN)C(=O)N[C@H](C(=O)N[C@@H](CC(C)C)C(N)=O)[C@@H](C)CC)C(C)C [V7] | 22.1422 | 57.1739
CC[C@H](C)[C@H](N)C(=O)N[C@@H](CC(N)=O)C(=O)N[C@@H](CC(C)C)C(=O)N[C@@H](CCCCN)C(=O)N[C@@H](C)C(=O)N[C@@H](CC(C)C)C(=O)N[C@@H](C)C(=O)N[C@@H](C)C(=O)N[C@@H](CC(C)C)C(=O)N[C@@H](C)C(=O)N[C@@H](CC(C)C)C(=O)N[C@@H](CCCCN)C(=O)N[C@H](C(=O)N[C@@H](CC(C)C)C(N)=O)[C@@H](C)CC [L11] | 23.4198 | 59.9826
CC[C@H](C)[C@H](N)C(=O)N[C@@H](CC(N)=O)C(=O)N[C@@H](CC(C)C)C(=O)N[C@@H](CCCCN)C(=O)N[C@@H](C)C(=O)N[C@H](C(=O)N[C@@H](C)C(=O)N[C@@H](C)C(=O)N[C@@H](CC(C)C)C(=O)N[C@@H](C)C(=O)N[C@@H](CCCCN)C(=O)N[C@@H](CCCCN)C(=O)N[C@H](C(=O)N[C@@H](CC(C)C)C(N)=O)[C@@H](C)CC)[C@@H](C)CC [I6] | 13.3589 | 31.3138
CC[C@H](C)[C@H](N)C(=O)N[C@@H](CC(N)=O)C(=O)N[C@@H](CC(C)C)C(=O)N[C@@H](CCCCN)C(=O)N[C@@H](C)C(=O)N[C@@H](CC(C)C)C(=O)N[C@@H](C)C(=O)N[C@@H](C)C(=O)N[C@@H](CC(C)C)C(=O)N[C@@H](C)C(=O)N[C@@H](Cc1c[nH]c2ccccc12)C(=O)N[C@@H](CCCCN)C(=O)N[C@H](C(=O)N[C@@H](CC(C)C)C(N)=O)[C@@H](C)CC [W11] | 64.4734 | 74.1582
CC[C@H](C)[C@H](N)C(=O)N[C@@H](CC(N)=O)C(=O)N[C@@H](CC(C)C)C(=O)N[C@@H](CCCCN)C(=O)N[C@@H](C)C(=O)N[C@@H](CC(C)C)C(=O)N[C@@H](C)C(=O)N[C@@H](C)C(=O)NCC(=O)N[C@@H](C)C(=O)N[C@@H](CCCCN)C(=O)N[C@@H](CCCCN)C(=O)N[C@H](C(=O)N[C@@H](CC(C)C)C(N)=O)[C@@H](C)CC [G9] | 7.302 | 11.2187
CC[C@H](C)[C@H](N)C(=O)N[C@@H](CC(N)=O)C(=O)N[C@@H](CC(C)C)C(=O)N[C@@H](CCCCN)C(=O)N[C@@H](C)C(=O)N[C@@H](CC(C)C)C(=O)N[C@@H](C)C(=O)N[C@@H](C)C(=O)N[C@@H](CC(C)C)C(=O)NCC(=O)N[C@@H](CCCCN)C(=O)N[C@@H](CCCCN)C(=O)N[C@H](C(=O)N[C@@H](CC(C)C)C(N)=O)[C@@H](C)CC [G10] | 11.4267 | 20.1107
CC[C@H](C)[C@H](N)C(=O)N[C@@H](CC(N)=O)C(=O)N[C@@H](CC(C)C)C(=O)N[C@@H](CCCCN)C(=O)N[C@@H](C)C(=O)N[C@@H](CC(C)C)C(=O)N[C@@H](C)C(=O)N[C@@H](CO)C(=O)N[C@@H](CC(C)C)C(=O)N[C@@H](C)C(=O)N[C@@H](CCCCN)C(=O)N[C@@H](CCCCN)C(=O)N[C@H](C(=O)N[C@@H](CC(C)C)C(N)=O)[C@@H](C)CC [S8] | -6.033 | 32.8816
CC[C@H](C)[C@H](N)C(=O)N[C@@H](CC(N)=O)C(=O)N[C@@H](CC(C)C)C(=O)N[C@@H](CCCCN)C(=O)N[C@@H](C)C(=O)N[C@@H](CC(C)C)C(=O)N[C@@H](C)C(=O)N[C@@H](C)C(=O)N[C@@H](CCCCN)C(=O)N[C@@H](C)C(=O)N[C@@H](CCCCN)C(=O)N[C@@H](CCCCN)C(=O)N[C@H](C(=O)N[C@@H](CC(C)C)C(N)=O)[C@@H](C)CC [K9] | -2.726 | 18.9586
CC[C@H](C)[C@H](N)C(=O)N[C@@H](CC(N)=O)C(=O)N[C@H](C(=O)N[C@@H](CCCCN)C(=O)N[C@@H](C)C(=O)N[C@@H](CC(C)C)C(=O)N[C@@H](C)C(=O)N[C@@H](C)C(=O)N[C@@H](CC(C)C)C(=O)N[C@@H](C)C(=O)N[C@@H](CCCCN)C(=O)N[C@@H](CCCCN)C(=O)N[C@H](C(=O)N[C@@H](CC(C)C)C(N)=O)[C@@H](C)CC)[C@@H](C)O [T3] | 8.955 | 21.7833
CC[C@H](C)[C@H](N)C(=O)N[C@@H](CC(N)=O)C(=O)N[C@@H](CC(C)C)C(=O)N[C@@H](CCCCN)C(=O)N[C@@H](C)C(=O)N[C@@H](CC(C)C)C(=O)N[C@@H](C)C(=O)N[C@@H](C)C(=O)N[C@@H](CC(C)C)C(=O)N[C@@H](C)C(=O)N[C@@H](CCCCN)C(=O)N[C@@H](CCCCN)C(=O)NCC(=O)N[C@@H](CC(C)C)C(N)=O [G13] | 6.832 | 23.4491
CC[C@H](C)[C@H](N)C(=O)N[C@@H](CC(N)=O)C(=O)N[C@@H](CC(C)C)C(=O)N[C@@H](CCCCN)C(=O)N[C@@H](C)C(=O)N[C@@H](CC(C)C)C(=O)N[C@@H](C)C(=O)N[C@@H](C)C(=O)N[C@@H](CC(C)C)C(=O)N[C@@H](C)C(=O)N[C@@H](Cc1ccc(O)cc1)C(=O)N[C@@H](CCCCN)C(=O)N[C@H](C(=O)N[C@@H](CC(C)C)C(N)=O)[C@@H](C)CC [Y11] | 16.0926 | 42.1135
CC[C@H](C)[C@H](N)C(=O)N[C@@H](CC(N)=O)C(=O)N[C@@H](CC(C)C)C(=O)N[C@@H](CCCCN)C(=O)N[C@@H](C)C(=O)N[C@@H](CCCNC(=N)N)C(=O)N[C@@H](C)C(=O)N[C@@H](C)C(=O)N[C@@H](CC(C)C)C(=O)N[C@@H](C)C(=O)N[C@@H](CCCCN)C(=O)N[C@@H](CCCCN)C(=O)N[C@H](C(=O)N[C@@H](CC(C)C)C(N)=O)[C@@H](C)CC [R6] | -10.6069 | 11.7131
CC[C@H](C)[C@H](N)C(=O)N[C@@H](CC(N)=O)C(=O)N[C@@H](CC(C)C)C(=O)N[C@@H](CCCCN)C(=O)N[C@@H](C)C(=O)N[C@@H](CC(C)C)C(=O)N[C@@H](C)C(=O)N[C@@H](C)C(=O)N[C@@H](CC(C)C)C(=O)N[C@@H](C)C(=O)N[C@@H](CCCCN)C(=O)N[C@@H](C)C(=O)N[C@H](C(=O)N[C@@H](CC(C)C)C(N)=O)[C@@H](C)CC [A12] | 17.0691 | 42.9356
CC[C@H](C)[C@H](N)C(=O)N[C@@H](CC(N)=O)C(=O)N[C@@H](CC(C)C)C(=O)N[C@@H](CCCCN)C(=O)N[C@@H](C)C(=O)N[C@@H](CC(C)C)C(=O)N[C@@H](C)C(=O)N[C@@H](C)C(=O)N[C@@H](CC(C)C)C(=O)N[C@@H](C)C(=O)N[C@H](C(=O)N[C@@H](CCCCN)C(=O)N[C@H](C(=O)N[C@@H](CC(C)C)C(N)=O)[C@@H](C)CC)C(C)C [V11] | 14.2972 | 50.781
CC[C@H](C)[C@H](N)C(=O)N[C@@H](CC(N)=O)C(=O)N[C@@H](CC(C)C)C(=O)N[C@@H](CCCCN)C(=O)N[C@@H](C)C(=O)N[C@@H](CC(C)C)C(=O)N[C@@H](C)C(=O)N[C@@H](C)C(=O)N[C@@H](CC(C)C)C(=O)N[C@@H](C)C(=O)N[C@@H](CCCCN)C(=O)N[C@@H](Cc1c[nH]cn1)C(=O)N[C@H](C(=O)N[C@@H](CC(C)C)C(N)=O)[C@@H](C)CC [H12] | 0.5315 | 31.16
CC[C@H](C)[C@H](N)C(=O)N[C@@H](CC(N)=O)C(=O)N[C@@H](CC(C)C)C(=O)N[C@@H](CCCCN)C(=O)N[C@H](C(=O)N[C@@H](CC(C)C)C(=O)N[C@@H](C)C(=O)N[C@@H](C)C(=O)N[C@@H](CC(C)C)C(=O)N[C@@H](C)C(=O)N[C@@H](CCCCN)C(=O)N[C@@H](CCCCN)C(=O)N[C@H](C(=O)N[C@@H](CC(C)C)C(N)=O)[C@@H](C)CC)C(C)C [V5] | 6.235 | 36.2551
CC[C@H](C)[C@H](N)C(=O)N[C@@H](CC(N)=O)C(=O)N[C@@H](CC(C)C)C(=O)N[C@@H](CCCCN)C(=O)N[C@@H](C)C(=O)N[C@@H](CC(C)C)C(=O)N[C@@H](C)C(=O)N[C@@H](C)C(=O)N[C@@H](CC(C)C)C(=O)N[C@@H](CCCCN)C(=O)N[C@@H](CCCCN)C(=O)N[C@@H](CCCCN)C(=O)N[C@H](C(=O)N[C@@H](CC(C)C)C(N)=O)[C@@H](C)CC [K10] | 0.05559 | 22.5673
